From PMC8661510, “Computational study, synthesis and evaluation of active peptides derived from Parasporin-2 and spike protein from Alphacoronavirus against colorectal cancer cells” (Bioscience Reports, 2021)
Where two headings read alike, the source gives them in different places. No end group written: not given here.

Key:
[1] = tested on: SW480 cells; experiment: Annexin V-Cy3/6-CFDA staining, SW480; type: cell-based, Human; conditions: EC50 concentration, 24 and 48 h
Protocol: (§1) The presence of phosphatidylserine at the cell surface was detected by phosphatidylserine binding protein annexin V conjugated with Cy3 using the commercially available Annexin V-Cy3 apoptosis detection kit (APOAC, Apoptosis Detection Kit, Sigma). […] The PBS and binding buffer were used to wash the adherent cells and the washed cell adherents were suspended in 50 µl of Ann-Cy3 and 6-CFDA. Then, the plates were incubated for 10 min in the dark. Afterwards, the excess label was removed by washing the cells with binding buffer. EVOS M7000 digital inverted fluorescence microscope (ThermoFisher Scientific; Waltham, MA, U.S.A.) was used to observe Ann-Cy3 and 6-CFDA-labeled cells. This assay allowed one to differentiate live cells (green), necrotic cells (red), and apoptotic cells (red nuclei and green cytoplasm). The percentage of cells reflecting apoptotic and necrotic cells was manually calculated. Data were collected for three replicates and used to calculate the respective means and standard deviations.

[2] = tested on: SW620 cells; experiment: Annexin V-Cy3/6-CFDA staining, SW620; type: cell-based, Human; conditions: EC50 concentration, 24 and 48 h
Protocol: as §1

[3] = tested on: SW480 cells; experiment: cells; conditions: Homo sapiens, SW480, 48 h
[4] = tested on: SW620 cells; experiment: cells; conditions: Homo sapiens, SW-620, 48 h
[5] = Hemolytic activity assay; type: cell-based; conditions: human, erythrocytes; 150 μM peptide; relative to 0.1% Triton X-100; read-out: %HC50 at 150 μM (percentage of hemolysis)
[6] = tested on: SW480 cells; conditions: for EC50: 48 h; for percentage of viability SW480 cells: human, 150 µM
[7] = tested on: SW620 cells; conditions: for EC50: 48 h; for percentage of cell viability SW620 cells: human, 150 µM

In the case of `O=c1[nH]cc(F)c(=O)[nH]1` [5-FU, 5-Fluorouracil], the “Annexin V-Cy3/6-CFDA staining result” value [1] is reported as “Same results”, the “Annexin V-Cy3/6-CFDA staining result” value [2] is reported as “Same results” and the EC50 ([3]; read-out: EC50 SW480) is reported as 24.4 ± 0.82 µM. The viability at 150 µM ([3]; read-out: percentage of viability SW480 cells) was 18.9%, the EC50 ([4]; read-out: EC50 SW620) was 11.9 ± 1.2 µM and the viability at 150 µM ([4]; read-out: percentage of cell viability SW620 cells) was 2.8%.

With “FKPQSGGGKCF-NH2 [Loop1-HCoV-229E, FKPQSGGGKCF-NH2]” the hemolysis at 150 μM [5] was 9.2%, the EC50 [6] was 125 ± 1.32 µM and the “percentage of viability SW480 cells” value [6] was 56.2%. The EC50 [7] was over 150 µM and the “percentage of cell viability SW620 cells” value [7] was 55.2%.

For “H-FLGWLFKVASK-NH2 [A4W-GGN5, FLGWLFKVASK-NH2, reference compound]”, the hemolysis at 150 μM [5] was 23%, the EC50 [6] was 98.6 ± 1.17 µM and the “percentage of viability SW480 cells” value [6] was 41.8%. The EC50 [7] was 22.1 ± 1.63 µM and the “percentage of cell viability SW620 cells” value [7] was 32.2%.

For “NNETYFNAVKP-NH2 [Loop1-PS2Aa, NNETYFNAVKP-NH2]”, the hemolysis at 150 μM [5] was 18.1%, the EC50 [6] was 23.8 ± 1.25 µM and the “percentage of viability SW480 cells” value [6] was 16%. For the same molecule, the EC50 [7] was 106 ± 1.67 µM and the “percentage of cell viability SW620 cells” value [7] was 46.8%.

With “PARDVLNTTSG-NH2 [P264-G274, PARDVLNTTSG-NH2]” the hemolysis at 150 μM [5] was 12.2%, the EC50 [6] was 90.98 ± 0.75 µM and the “percentage of viability SW480 cells” value [6] was 41.6%. For the same molecule, the EC50 [7] was 11.3 ± 0.52 µM and the “percentage of cell viability SW620 cells” value [7] was 16.5%.

For “TYFNAVKPPITA-NH2 [Loop2-PS2Aa, TYFNAVKPPITA-NH2]”, the hemolysis at 150 μM [5] was 9.4%, the EC50 [6] was 93 ± 0.98 µM and the “percentage of viability SW480 cells” value [6] was 39.5%. For the same molecule, the EC50 [7] was 16 ± 0.69 µM and the “percentage of cell viability SW620 cells” value [7] was 24.1%.
